pIC50: −log10 of the molar value.
Legend:
[1] = test system: membrane-type 1 MMP (MT1-MMP); assay: MT1-MMP protein expression, MCF-10-CA1a cells; assay type: cell-based, human
Excerpt: (§1) Western Blotting. Proteins were separated by gel electrophoresis using 4-12% pre-cast SDS-polyacrylamide gels (Invitrogen, Carlsbad, Calif.) and then electrophoretically transferred onto Hybond™-P membrane (Amersham Biosciences, Piscataway, N.J.). Blots were probed with specific antibodies (Santa Cruz Biotechnology, Inc). The ECL Plus Western Blotting Detection System of Amersham Biosciences (Piscataway, N.J.) and the procedure recommended by the manufacturer was used for the detection of antigens. Protein bands were quantified by analyzing the images obtained using an Alphaimager™ S-3400 (Alpha Innotech Corp., San Leandro, Calif.).
(§2) The effects of SR 13179 on the protein expression of TIMP-1, TIMP-2, and membrane-type 1 MMP (MT1-MMP) were studied. SR13179 induced the protein expression of TIMP-2 in a dose- and time-dependent manner. MCF-10-CA1a cells were treated with SR 13179 at 1, 3, or 5 μM concentrations for 48 h, or, alternatively, with […] SR 13179 for 8, 24, or 48 h. Cells were lysed and subjected to Western blotting.
The effect of SR13179 on the extracellular levels of TIMP-2 as well as MMP-2 was also investigated. Treatment of MCF-10CA1a cells with SR13179 at 5 μM concentration caused 5- to 8-fold increase in the secreted level of TIMP-2 and a 2-fold decrease in the extracellular level of MMP-2. […]

HUVEC cells = assay: Apoptosis in HUVEC cells, TUNEL assay; assay type: cell-based, human
Description: The antiproliferative mechanism was investigated by assaying for apoptosis using the method of Gavrieli et al. using a Promega (Madison, Wis.) apoptosis detection kit (Gavrieli et al. (1992) J Cell. Biol. 119:493-501). Briefly, HUVEC cells were treated with four log concentrations of SR 13179 (1 nM, 10 nM, 100 nM, and 1 μM) and fixed for terminal deoxyribonucleotide transferase-mediated dUTP nick end labeling (TUNEL) assay at 3 h and 6 h. The apoptotic cells were labeled with fluorescent dUTP at DNA strand breaks, and were counterstained with Hoechst 33258 to visualize nuclear morphology. Even at concentrations as low as 10 nM at 3 h, apoptosis was clearly evident as pyknotic nuclei. […] At six hours, there appeared to be massive apoptosis at higher concentrations of SR 13179, such that the cells were detached and lost during the washing steps. It thus appears that the antiproliferative effect of SR 13179 on vascular endothelial cells is mediated by apoptosis.

[2] = test system: MDA-MB-231 breast cancer cells; assay: Boyden-chamber Matrigel invasion/migration assay, MDA-MB-231; assay type: cell-based, human
Description: Cell Culture. MCF-10CA1a cells were cultured in Dulbecco's Modified Eagle Medium (DMEM) supplemented with 5% bovine serum, 2 mM glutamine and 1 mM non-essential amino acids. MDA-MB231 cells were grown in DMEM supplemented with 5% bovine serum. Cells were routinely maintained in a 5% CO2 incubator at 37° C.
General Procedure for Invasion Assay. MCF 10-CA1a or MDA-MB-231 breast cancer cells were treated with 1 or 5 μM of the compound being tested for 8 h. Cells were removed by trypsinizing and tested for their invasiveness by Boyden-chamber invasion assay. In the in vitro invasion/migration assays, a standard Matrigel-based assay, according to the manufacturer's (Becton-Dickinson) protocol, was used. Rehydrated Matrigel and control inserts were added to Falcon TC companion plates containing human fibronectin (30 μg/ml) as chemoattractant. Cellular suspensions (2×10^4 cells/0.5 ml) were added to individual wells of 24-well chambers (containing either control or Matrigel inserts), and the plates incubated (37° C., 5% CO2) in the presence of the compound being tested or vehicle for an additional 16-18 h. Non-invading or non-migrating cells were removed by scraping the top surfaces of the Matrigel and control inserts, respectively. The invading (or migrating) cells (on the bottom surface) were fixed (3.7% formaldehyde) and stained with Accustain (Sigma). The percent invasion was calculated as mean number of invading cells/the mean number of cells migrating through a control membrane×100.
(§3) The in vitro invasion through Matrigel was studied for two human breast cancer lines: MCF-10CA1a, a highly metastatic ER^+ line and MDA-MB-231, an ER^− line. […] At this concentration, SR13179 inhibited invasion of MDA-MB-231 by about 30% (and by 70% at 5 μM). To rule out a cytotoxic effect in the inhibition of invasion, a concurrent cytotoxicity assay was carried out and the number of viable cells was determined by MTT assay. There was less than 5% decrease in MDA-MB-231 cell viability at 5 μM concentration of SR13179 at 22 h. In the same experiment, a motility experiment was conducted, showing that cell migration was inhibited by about 20%.

[3] = test system: prostate cancer cell line PC-3; assay: Growth inhibition, sulforhodamine-based protein determination, PC-3; assay type: cell-based; details: 144 h; continuous exposure six days
Description: (§4) The novel compound SR 13179 was assayed for its ability to inhibit growth in several cancer cell lines. The cell lines studied included breast cancer cell line MCF-7 (ER+); prostate cancer cell lines LNCaP, PC3, and DU145; lung cancer cell line A427; ovarian cancer cell lines IGROV1, OVCAR-3, OVCAR-4, OVCAR-5, OVCAR-8, and SK-OV-3; and colon cancer cell lines COLO 205, HCC-2998, HCT-116, HCT-15, HT29, KM12, AND SW-620.
(§5) The growth assays for the breast cancer cell lines were conducted according to the method of Example 16. For the other cell lines, each assay was conducted with continuous exposure to the test compound at four log concentrations for six days, using a sulforhodamine-based protein determination to measure growth inhibition.

TIMP-2 = assay: Western blotting of TIMP-2 protein expression, MCF-10-CA1a cells; assay type: cell-based, human
Excerpt: as §1, §2

MDA-MB-231 cells = assay: Concurrent cytotoxicity assay (MTT), MDA-MB-231; assay type: cell-based, human; details: 5 μM, 22 h
Description: as §3

[4] = test system: colon cancer cell line COLO 205; assay: Growth inhibition, sulforhodamine-based protein determination, COLO 205; assay type: cell-based; details: Homo sapiens, COLO 205, 144 h; continuous exposure six days
Description: as §4, §5

[5] = test system: prostate cancer cell line DU145; assay: Growth inhibition, sulforhodamine-based protein determination, DU145; assay type: cell-based; details: Homo sapiens, DU-145, 144 h; continuous exposure six days
Description: as §4, §5

COc1cc(C2CC(O)c3ccc4ccccc4c3O2)cc(OC)c1OC (stereo not shown) [SR 13179, 2-(3,4,5-trimethoxyphenyl)-3,4-dihydro-2H-benzo[h]chromen-4-ol]
MT1-MMP protein levels [1]: no significant effect
Percent apoptosis (HUVEC cells; 1 nM, 3 h): 10.3%
Percent apoptosis (HUVEC cells; 1 nM, 6 h): 8.5%
Percent apoptosis (HUVEC cells; 10 nM, 3 h): 10.3%
Percent apoptosis (HUVEC cells; 10 nM, 6 h): cells detached
Percent apoptosis (HUVEC cells; 100 nM, 3 h): 11.9%
Percent apoptosis (HUVEC cells; 100 nM, 6 h): cells detached
Percent apoptosis (HUVEC cells; 1 μM, 3 h): 16.7%
Percent apoptosis (HUVEC cells; 1 μM, 6 h): cells detached
increase in the percentage of detected apoptotic cells (HUVEC cells; three hours after exposure, versus control): two to three fold increase
Invasion (%) ([2]; 1 μM): 60%
Invasion (%) ([2]; 5 μM): 25%
inhibition at 1 µM ([2]; Homo sapiens, MDA-MB-231, 1 μM): ~30%
inhibition at 5 µM ([2]; Homo sapiens, MDA-MB-231, 5 μM): 70%
inhibition of cell migration (motility experiment) ([2]; same experiment as the cytotoxicity assay): about 20%
pIC50 [3]: 6.54
Level of TIMP-2 Protein (TIMP-2; 1 μM, 48 h): 6.8
Level of TIMP-2 Protein (TIMP-2; 3 μM, 48 h): 14.6
Level of TIMP-2 Protein (TIMP-2; 5 μM, 48 h): 16.2
Level of TIMP-2 Protein (TIMP-2; 8 h, 5 mM SR 13179): 7.9
Level of TIMP-2 Protein (TIMP-2; 24 h, 5 mM SR 13179): 14.5
Level of TIMP-2 Protein (TIMP-2; 48 h, 5 mM SR 13179): 15.9
decrease in cell viability (MDA-MB-231 cells): less than 5%
pIC50 [4]: 6.58
pIC50 [5]: 6.20
